Measurements reported in US8552064B2, “Suramin and derivatives thereof as topical microbicide and contraceptive” (Eastern Virginia Medical School, priority 2005, dated 2013).
In brackets after ≈: the same amount, converted by molar mass. Where two headings read alike, the source gives them in different places.

Tests used:
[1] = system: murine cytomegalovirus (MCMV) binding to NIH3T3 fibroblasts; assay: Cytomegalovirus binding assay; assay type: cell-based
Description: In a cytomegalovirus binding assay, tritiated murine cytomegalovirus (MCMV) was incubated with NIH3T3 fibroblasts in a 24-well plate fixed (0.4% paraformaldehyde) for 2 hours at 37° C. (rocking) in the presence of media alone or media containing 1-1000 μg/mL suramin. Cells were then washed extensively and lysed with 1% SDS and triton X-100. Lysates were quantified for radioactivity (cpm) in a scintillation counter.

[2] = system: rabbit sperm; assay: Rabbit contraceptive efficacy, intravaginal application; assay type: in vivo
Description: Semen was collected from New Zealand White (NZW) male rabbits with the aid of an artifical vagina, pooled and adjusted with a modified Tyrode's albumin lactate pyruvate (TALP) medium to 50 million motile sperm per milliliter. Ovulation was induced in females by injection of 200 IU of human chorionic gonadotropin (hCG) intravenously. Under the ex-vivo (in-vitro) mixing protocol, sperm were incubated with indicated suramin test compounds in a tube for 15 minutes at 37° C. prior to insemination (0.5 mL) as described in Anderson R. A., et al. J. Androl., 21: 862-875 (2000). […] Sperm-compound contact, in this case, took place in vivo, inside the vagina. Insemination and administration of the compound was performed with a flexible, 12 cm long polyurethane catheter. The main endpoints for both protocols were the number of implantation sites counted 11 days after insemination and pregnancy rate. Such sites were counted by visual inspection of the tubes.

[3] = system: sperm; assay: Sperm progressive motility dose-response and time studies, CASA; assay type: cell-based, human
[4] = system: human sperm acrosome reaction; assay: Acrosome reaction ionophore challenge test (ARIC); assay type: cell-based
Description: The acrosome reaction ionophore challenge test (ARIC) was used, as described in Cummins J. M., et al., J. Androl., 12: 98-103 (1991), to measure the proportion of spermatozoa that respond to a calcium ionophore (typically, A23187), developing an acrosome reaction. More specifically, this test was used to determine whether suramin sodium affects the ionophore-induced acrosome reaction of the sperm, therefore altering the capacity of sperm to penetrate an egg. Results are expressed in percent inhibition of control (untreated sperm) acrosome reactions. 2.

[5] = system: sperm penetration in cervical mucus; assay: Modified One End Test (MOET), sperm penetration in bovine cervical mucus; assay type: cell-based
Description: Bovine cervical mucus was obtained from Humagen (Charlottesville, Va.) in the form of prepackaged flat capillary tubes (Penetrak®), kept frozen and thawed right prior to the experiment. The Modified One End Test (MOET) [(described in Doncel G. F., in “Barrier Contraceptives”, Wiley-Liss, Mauck C. K. et al. eds., pp. 147-162 (1994)] was used to determine the effect of compounds, such as suramin sodium described herein, on sperm penetration in cervical mucus. Each of the test compositions containing the compound to be tested were diluted in a saline solution, i.e., at 9 grams of NaCl per liter of water. Tubes of cervical mucus were broken open. The open end was placed in a container containing the test compound in saline. The test compound was allowed to diffuse for 30 minutes through the tube. A semen sample, obtained from normal healthy donors, was then diluted with a buffer solution to 60 million motile sperm per milliliter and mixed with the test compound sample (i.e., suramin sodium). The tube containing the test compound sample was then re-inserted into the container containing the mixed solution and stored in an incubator at 37° C. in an atmosphere of 5 percent carbon dioxide in air for 60 minutes. The container and tube were then removed from the incubator and the tube was visually analyzed under a microscope for the migration of motile vanguard sperm through the tube. The results are expressed as percentage of migration as compared to control samples. In the control samples, the tubes were incubated with saline containing no compound. […]

[6] = system: interleukin release by vaginal cells; assay type: cell-based, human
Description: Interleukin levels were assessed in the supernatant collected after 6 hours of compound-cells incubation using commercial ELISA kits (R&D Diagnostics, Minneapolis, Minn.) according to manufacturer's instructions (also see Fichorova R. N. et al., J. Infect. Dis. 184(4): 418-28, 2001).

[7] = system: sperm; assay: Sperm viability, membrane integrity (HOST); assay type: cell-based
Description: Viability of sperm was assessed by a sperm membrane integrity evaluation as described in Jeyendran R. S. et al., J. Reprod. Fertil., 70: 219-28 (1984). Aliquots of sperm samples were incubated with suramin or N-9 test compounds. The reaction was terminated by the addition of 1.5 mL Ham's F10. Sperm were centrifuged and the pellet was resuspended in 200 μL of medium. Sperm viability was assessed by placing 100 μL of the sperm suspension in 900 μL of hypo-osmotic swelling test (HOST) medium for 30 min. Coiled sperm tails are a reflection of intact sperm membrane permeability and indicate viable sperm. A minimum of 200 cells were microscopically assessed from each sample.

[8] = system: HSV-1; assay: HSV plaque assay, HSV-1; assay type: cell-based; details: Human alphaherpesvirus 1; read-out: IC50 against HSV-1
[9] = system: HIV-1-infected SupT1 cells (strain IIIB); assay: Cell-to-cell transmission (CTC) assay; assay type: cell-based; details: for IC50: Human immunodeficiency virus 1, IIIB, SUP-T1
Description: HIV-1-infected SupT1 cells (strain IIIB), killed by prior exposure to mitomycin C (200 μg/mL) for 1 hour at 37° C., were incubated with each agent and P4-R5 (MAGI) cells for 2 hours at 37° C. Following the incubation period, cells were washed and provided with new media. Successful transmission and subsequent replication events were quantitated using Galacto-Star assay 48 hr post-infection. Infected cells were expressed as a percent of cells infected after mock exposure. In each assay, triplicate wells were tested for each concentration. The results of this assay are provided herein.

## Cc1ccc(C(=O)Nc2ccc(S(=O)(=O)O)c3cc(S(=O)(=O)O)cc(S(=O)(=O)O)c23)cc1NC(=O)c1cccc(NC(=O)Nc2cccc(C(=O)Nc3cc(C(=O)Nc4ccc(S(=O)(=O)O)c5cc(S(=O)(=O)O)cc(S(=O)(=O)O)c45)ccc3C)c2)c1 [Suramin, 8,8′-(carbonylbis(imino-3,1-phenylenecarbonylimino(4-methyl-3,1-phenylene)carbonylimino))bis-1,3,5-naphthalene trisulfonic acid]
[1]
  Potency, CMV Binding: Moderate
[1]; NIH3T3, read-out: IC50 CMV binding assay
  IC50: 50 µg/mL (≈ 38.5 µM)
[2]; 1.25% in Replens
  inhibition (contraceptive), Vaginal Application: 100% inhibition
[2]; 2%
  inhibition, Vaginal Application: 44% at 2%
[2]; 2% suramin + 2% sorbitan mono laurate or 0.1% N-9
  inhibition, Vaginal Application Combo: 100% inhibition at
[2]; 5%, intravaginal administration
  reduction in PR: 75% inhibition
[2]; rabbit, in vivo
  Potency, Contraception, rabbit inseminated sperm (Vaginal Application): Moderate
  Potency, Vaginal Application Combo: High
  Potency, Vaginal Application, Replens: High
[3]; 1 mM
  sperm motion parameters by CASA: no significant changes in sperm motion parameters
[3]; 7.5 mg/mL
  sperm motion characteristics vs control: did not appear to be significantly different
[3]; 1-10,000 μg/mL or 5-0.07 mM
  sperm progressive motility and membrane integrity vs solvent control: no alteration of sperm progressive movement and viability
[3]; suboptimal doses, prolonged incubation (e.g., 30 min.)
  sperm motility, time-dependent study: no alteration of sperm motility
[4]
  effect on spontaneous and ionophore-induced acrosome reaction: neither to stimulate spontaneous acrosome reaction (acrosomal loss) nor to block the Ca^2+ ionophore-induced reaction
[4]; Calcium-ionophore treatment (5 μM A23187): +
  Percentage of acrosome-reacted Sperm: 31.4 ± 15.1%
[4]; Calcium-ionophore treatment (5 μM A23187): −
  Percentage of acrosome-reacted Sperm: 5.28 ± 1.93%
[4]; induction or inhibition of acrosome reaction
  Potency, Acrosome Reaction (ARIC): None
[5]; 6.25 mg/ml
  MOET % CTL: 96.1 ± 0.9 % CTL
[5]; 12.5 mg/ml
  MOET % CTL: 94.9 ± 2.2 % CTL
[5]; 25 mg/mL or below
  sperm impediment in MOET: No significant sperm impediment
[5]; 25 mg/ml
  MOET % CTL: 95.9 ± 1.4 % CTL
[5]; 50 mg/mL (5%)
  inhibition of sperm penetration in MOET: only minor inhibition of sperm penetration
[5]; 50 mg/ml
  MOET % CTL: 72.3 ± 7.1 % CTL
[5]; KY, suramin sodium in KY and suramin sodium alone at the same concentration
  degree of inhibition of sperm penetration: ~4%
[6]
  N-9-induced release of IL-1 and IL-8 by vaginal cells: decreased N-9-induced release of IL-1 and IL-8
  Potency, Proinflammatory Cytokines (ELISA): None
  stimulation of proinflammatory cytokines: no stimulation of proinflammatory cytokines
[6]; human, 6 h
  release of IL-1β by cultured vaginal cells: did not induce the release of IL-1β
[7]; 10-0.001 mg/mL
  sperm viability vs solvent-treated controls: No significant differences
[7]; time- and dose-dependent exp.
  Potency, Viability (HOST): None
[8]
  IC50: 30 µg/mL (≈ 23.1 µM)
[9]
  Potency, HIV-1 CTC: High
[9]; CD4-dependent cell-to-cell transmission, API, read-out: IC50 CTC assay
  IC50: 93.5 µg/mL (≈ 72.1 µM)
[9]; not API (Table 8: 2% suramin in Replens), read-out: IC50 CTC, second value beside API
  IC50: 9.6 µg/mL (≈ 7.4 µM)
